These results are taken from patent US20170196802A1, “Long Acting Injectable Formulations” (Abon Pharmaceuticals, LLC, priority 2016, published 2017).

Like-named read-outs stand apart in the source and are kept apart here.

For series [1] the following is noted: weight gain, diabetes risk, dyslipidemia risk; cited from earlier work.
Series [2] can be described thus: Pharmacokinetic study, intramuscular injection, four arm parallel. Particulars: male, Sprague-Dawley, im, rat. Type of series: in vivo, male Sprague-Dawley Rats. As to the method:
A long acting formulation is expected to suppress the maximum blood concentration (Cmax) and maintain therapeutic blood profiles for an extended period of time. […] To evaluate the in-vivo performance of our formulations, three suspensions of Lurasidone HCl were prepared with varying particle size and/or viscosity at 100 mg/mL with compositions given in Table 23, and with processes shown in FIGS. 11, 12 and 13 for Suspensions 1, 2, and 3, respectively. As a control, a solution of Lurasidone HCl was prepared at 2.5 mg/mL. […]
The blood samples were collected, placed into chilled tubes containing sodium heparin, inverted several times to mix, and kept on ice until centrifugation. […] Samples were analyzed with LC-MS/MS against an eight point standard curve with concentrations ranging from 0.05 ng/mL to 100 ng/mL. […]
Mass Spectrometer Conditions • Instrument: PE Sciex API4000 • Interface: Electrospray (“Turbo Ion Spray”) • Mode: Multiple reactions monitoring (MRM) • Gases: CUR 20, CAD 10, GS1 50, GS2 50 • Source Temperature: 500° C. • Voltages and Ions Monitored:
The formulations were well tolerated, and no adverse local or systemic reactions were observed following intramuscular administration of lurasidone to the animals. (Pharmacokinetic parameters were calculated with Phoenix WinNonlin version 6.4). […]

For series [3] the following is noted: after oral administration of a 40 mg tablet; package insert; cited from earlier work.
The conditions of series [4]: pH dependence; cited from earlier work.

The half-life is the time needed for the level to fall by half in the phase considered.

Regarding `Cc1cc2c(s1)Nc1ccccc1N=C2N1CCN(C)CC1` [olanzapine], in series [1], the metabolic effects result is recorded as “moderate to high”.
Turning to `OCCOCCN1CCN(C2=Nc3ccccc3Sc3ccccc32)CC1` [quetiapine], the metabolic effects entry in series [1] was “moderate to high”.
On to `CN1CCN(C2=Nc3cc(Cl)ccc3Nc3ccccc32)CC1` [clozapine], for which, in series [1], the metabolic effects result is listed as “moderate to high”.
As for `O=C1[C@@H]2[C@H]3CC[C@H](C3)[C@@H]2C(=O)N1C[C@@H]1CCCC[C@H]1CN1CCN(c2nsc3ccccc23)CC1` [lurasidone], the half-life was 10 h in series [2] (1.5 mg/kg, calculated based on terminal phase plasma concentrations above 2% of Cmax); not above 505 h in series [2] (plasma, 45 mg/kg); 18 h in series [3]. The metabolic effects entry in series [1] was “low”. Also, in series [4], the solubility profile result is “lower solubility at higher pH values”.
